Experimental data published in ChEMBL document CHEMBL5584224, “Recent advances in c-Met-based dual inhibitors in the treatment of cancers” (Eur J Med Chem, 2024).

Legend:
[1] = molecular target: Fibroblast growth factor receptor 2 (Homo sapiens, UniProt P21802); test: Inhibition of FGFR2 (unknown origin)
[2] = molecular target: Fibroblast growth factor receptor 3 (Homo sapiens, UniProt P22607); test: Inhibition of FGFR3 (unknown origin)
[3] = molecular target: Fibroblast growth factor receptor 1 (Homo sapiens, UniProt P11362); test: Inhibition of FGFR1 (unknown origin)
HepG2 [4] = test: Antitumor activity against human HepG2 cells xenografted in mouse model assessed as tumor growth inhibition at 16 mg/kg/day for 7 days relative to control; type: functional; set-up: scale not given: the % may be the effect or the level left; conditions: time 7 day
HepG2 [5] = test: Antiproliferative activity against human HepG2 cells assessed as reduction in cell viability incubated for 72 hrs by MTT assay; type: functional, cell-based; conditions: HepG2, 72 h
HepG2 [6] = test: Antitumor activity against human HepG2 cells xenografted in mouse model assessed as tumor growth inhibition at 48 mg/kg/day for 7 days relative to control; type: functional; set-up: scale not given: the % may be the effect or the level left; conditions: time 7 day

Fibroblast growth factor receptor 3, sequence (P22607 whole entry): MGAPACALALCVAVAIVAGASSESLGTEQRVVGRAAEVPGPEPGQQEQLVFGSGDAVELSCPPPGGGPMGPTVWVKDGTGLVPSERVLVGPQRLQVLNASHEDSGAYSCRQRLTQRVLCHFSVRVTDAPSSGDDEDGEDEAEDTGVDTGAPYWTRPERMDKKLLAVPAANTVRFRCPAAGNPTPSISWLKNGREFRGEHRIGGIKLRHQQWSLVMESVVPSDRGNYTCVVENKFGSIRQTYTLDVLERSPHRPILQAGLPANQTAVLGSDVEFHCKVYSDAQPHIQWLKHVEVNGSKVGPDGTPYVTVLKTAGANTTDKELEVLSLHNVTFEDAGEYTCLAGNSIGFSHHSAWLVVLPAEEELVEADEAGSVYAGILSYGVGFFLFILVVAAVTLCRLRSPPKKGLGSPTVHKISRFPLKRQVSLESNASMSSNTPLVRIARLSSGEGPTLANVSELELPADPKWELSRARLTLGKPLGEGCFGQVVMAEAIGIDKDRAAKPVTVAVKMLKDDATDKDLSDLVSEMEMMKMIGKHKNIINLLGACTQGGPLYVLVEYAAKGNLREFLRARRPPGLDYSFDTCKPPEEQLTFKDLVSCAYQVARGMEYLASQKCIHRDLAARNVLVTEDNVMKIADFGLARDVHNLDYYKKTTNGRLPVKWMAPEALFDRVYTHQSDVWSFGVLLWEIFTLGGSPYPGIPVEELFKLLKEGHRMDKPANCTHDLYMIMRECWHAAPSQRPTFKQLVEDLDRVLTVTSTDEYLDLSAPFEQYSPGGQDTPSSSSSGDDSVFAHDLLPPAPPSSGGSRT
Fibroblast growth factor receptor 2, sequence (P21802 whole entry): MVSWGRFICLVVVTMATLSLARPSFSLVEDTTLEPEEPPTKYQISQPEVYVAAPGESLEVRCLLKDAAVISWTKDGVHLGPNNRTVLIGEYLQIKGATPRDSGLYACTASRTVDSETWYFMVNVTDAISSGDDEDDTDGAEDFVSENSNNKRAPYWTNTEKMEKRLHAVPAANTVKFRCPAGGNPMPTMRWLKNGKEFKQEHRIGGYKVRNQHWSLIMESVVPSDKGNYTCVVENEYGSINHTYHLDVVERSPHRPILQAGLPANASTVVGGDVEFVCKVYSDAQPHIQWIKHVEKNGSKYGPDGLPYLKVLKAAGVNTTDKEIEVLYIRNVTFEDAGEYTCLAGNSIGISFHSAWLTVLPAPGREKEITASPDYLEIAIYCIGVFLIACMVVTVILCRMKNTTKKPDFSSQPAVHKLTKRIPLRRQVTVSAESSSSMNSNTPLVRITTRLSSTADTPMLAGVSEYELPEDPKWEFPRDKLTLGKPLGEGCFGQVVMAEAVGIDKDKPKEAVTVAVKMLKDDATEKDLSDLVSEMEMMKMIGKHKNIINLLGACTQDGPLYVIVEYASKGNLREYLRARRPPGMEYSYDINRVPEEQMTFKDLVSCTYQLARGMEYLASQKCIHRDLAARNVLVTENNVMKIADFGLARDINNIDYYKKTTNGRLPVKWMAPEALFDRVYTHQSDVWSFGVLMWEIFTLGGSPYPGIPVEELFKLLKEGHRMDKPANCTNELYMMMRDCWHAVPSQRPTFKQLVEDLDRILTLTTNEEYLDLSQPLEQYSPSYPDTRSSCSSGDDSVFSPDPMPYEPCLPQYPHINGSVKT
Fibroblast growth factor receptor 1, sequence (P11362 whole entry): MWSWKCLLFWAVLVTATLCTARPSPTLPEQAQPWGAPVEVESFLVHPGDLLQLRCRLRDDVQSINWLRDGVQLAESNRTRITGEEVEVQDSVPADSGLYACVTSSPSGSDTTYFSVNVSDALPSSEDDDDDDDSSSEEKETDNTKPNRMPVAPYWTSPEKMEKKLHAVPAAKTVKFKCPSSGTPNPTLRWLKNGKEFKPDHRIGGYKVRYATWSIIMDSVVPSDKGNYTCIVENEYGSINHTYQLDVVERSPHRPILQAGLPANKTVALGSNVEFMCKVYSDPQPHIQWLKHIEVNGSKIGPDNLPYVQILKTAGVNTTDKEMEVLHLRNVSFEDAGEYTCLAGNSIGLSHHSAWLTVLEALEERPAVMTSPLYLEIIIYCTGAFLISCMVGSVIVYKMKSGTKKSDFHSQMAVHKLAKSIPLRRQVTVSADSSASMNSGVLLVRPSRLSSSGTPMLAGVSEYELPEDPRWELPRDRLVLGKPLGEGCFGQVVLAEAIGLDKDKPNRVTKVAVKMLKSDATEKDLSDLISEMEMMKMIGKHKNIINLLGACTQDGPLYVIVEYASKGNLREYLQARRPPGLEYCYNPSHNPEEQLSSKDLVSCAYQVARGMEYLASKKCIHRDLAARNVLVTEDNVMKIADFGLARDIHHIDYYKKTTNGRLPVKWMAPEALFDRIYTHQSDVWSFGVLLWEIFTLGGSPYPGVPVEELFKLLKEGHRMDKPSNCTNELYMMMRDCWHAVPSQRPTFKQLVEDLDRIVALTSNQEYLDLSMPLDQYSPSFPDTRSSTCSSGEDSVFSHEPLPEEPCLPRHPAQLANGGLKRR

For O=C1Nc2ccc(CN3C(=O)CSC3=O)cc2/C1=C/c1cc(CN2CCOCC2)c[nH]1, the IC50 [1] was 17 nM, the IC50 [2] was 15 nM and the IC50 [3] was 18 nM.

Cc1ccccc1NS(=O)(=O)c1ccc2c(c1)/C(=C/c1nc3ccccc3[nH]1)C(=O)N2.Cl was tested, and the Activity (HepG2 [4]) was 65.2%, the IC50 (HepG2 [5]) was 1460 nM and the Activity (HepG2 [6]) was 65.2%.
